Results reported in US9918988B2, “Ammonium derivatives for the treatment of hepatitis C” (priority 2013, dated 2018).
Read-outs that look alike come from different tables or passages of the source.

Tested on: HCV pseudoparticles (genotype 1a HCV E1 and E2 envelope, H77C isolate)
Experiment: HCV pseudoparticle infection assay (genotype 1a, luciferase reporter, Huh7 cells)
Format: cell-based
Settings: Hepatitis C virus, Huh-7, 48 h, read-out: EC50 (1a, nM), HCV genotype 1a pseudoparticles, Huh7 cells, luciferase 2 days after infection

SMILES	EC50 (class symbol)	EC50 (numeric value)
C[N+](C)(C)CCCNC(=O)c1ccc2cc1OCCCCCCOc1ccc(cc1)CNc1nc(nc(OCC(F)(F)F)n1)N2 [Compound 3002]	10 to 1000 nM	–
CC(C)(CNC(=O)c1ccc2cc1OCCCCCCOc1ccc(cc1)CNc1nc(nc(OCC(F)(F)F)n1)N2)C[N+](C)(C)C [Compound 3003]	0.01 to 10 nM	7.51 nM
C[N+](C)(C)CCCNC(=O)c1ccc(Nc2nc(NC3(c4ccc(Cl)cc4)CC3)nc(OCC(F)(F)F)n2)cc1 [Compound 1004, 3-(4-(4-(1-(4-chlorophenyl)cyclopropylamino)-6-(2,2,2-trifluoroethoxy)-1,3,5-triazin-2-ylamino)benzamido)-N,N,N-trimethylpropan-1-aminium]	0.01 to 10 nM	–
C[N+](C)(C)CCNC(=O)c1ccc2cc1OCCCCCCCCOc1ccc(cc1)CNc1nc(nc(OCC(F)(F)F)n1)N2 [Compound 2001]	0.01 to 10 nM	–
[2H]C([2H])(Oc1nc(Nc2ccc(C(=O)NCC[N+](C)(C)C)cc2)nc(NC2(c3ccc(Cl)cc3)CC2)n1)C(F)(F)F [Compound 1002, 2-(4-(4-(1-(4-chlorophenyl)cyclopropylamino)-6-(2,2,2-trifluoroethoxy-D2)-1,3,5-triazin-2-ylamino)benzamido)-N,N,N-trimethylethanaminium]	0.01 to 10 nM	–
C[N+](C)(C)CCNC(=O)c1ccc2cc1OCCOCCOCCOc1ccc(cc1)CNc1nc(nc(OCC(F)(F)F)n1)N2 [Compound 4001]	0.01 to 10 nM	–
C[N+](C)(C)CCCC[C@H](NC(=O)c1ccc(Nc2nc(NC3(c4ccc(Cl)cc4)CC3)nc(OCC(F)(F)F)n2)cc1)C(=O)O [Compound 1005, (S)-5-carboxy-5-(4-(4-(1-(4-chlorophenyl)cyclopropylamino)-6-(2,2,2-trifluoroethoxy)-1,3,5-triazin-2-ylamino)benzamido)-N,N,N-trimethylpentan-1-aminium]	0.01 to 10 nM	–
CC(C)(CNC(=O)c1ccc(Nc2nc(NC3(c4ccc(Cl)cc4)CC3)nc(OCC(F)(F)F)n2)cc1)C[N+](C)(C)C [Compound 1006, 3-(4-(4-(1-(4-chlorophenyl)cyclopropylamino)-6-(2,2,2-trifluoroethoxy)-1,3,5-triazin-2-ylamino)benzamido)-N,N,N,2,2-pentamethylpropan-1-aminium]	0.01 to 10 nM	0.115 nM
C[N+](C)(C)CCNC(=O)c1ccc2cc1OCCCCCCOc1ccc(cc1)CNc1nc(nc(OCC(F)(F)F)n1)N2 [Compound 3001]	0.01 to 10 nM	–
C[N+](C)(C)CC(=O)NNC(=O)c1ccc(Nc2nc(NC3(c4ccc(Cl)cc4)CC3)nc(OCC(F)(F)F)n2)cc1 [Compound 1003, 2-(2-(4-(4-(1-(4-chlorophenyl)cyclopropylamino)-6-(2,2,2-trifluoroethoxy)-1,3,5-triazin-2-ylamino)benzoyl)hydrazinyl)-N,N,N-trimethyl-2-oxoethanaminium]	10 to 1000 nM	64.1 nM
C[N+](C)(C)CCNC(=O)c1ccc(Nc2nc(NC3(c4ccc(Cl)cc4)CC3)nc(OCC(F)(F)F)n2)cc1 [Compound 1001, 2-(4-(4-(1-(4-chlorophenyl)cyclopropylamino)-6-(2,2,2-trifluoroethoxy)-1,3,5-triazin-2-ylamino)benzamido)-N,N,N-trimethylethanaminium]	0.01 to 10 nM	–
